Reference: ChEMBL document CHEMBL1944628, “Bioanalytical Screening of Riboflavin Antagonists for Targeted Drug Delivery - A Thermodynamic and Kinetic Study” (ACS Med Chem Lett, 2011)

What was measured:
[1] = target: T1, Riboflavin-binding protein (Gallus gallus, UniProt P02752); test: Binding affinity to chicken riboflavin binding protein by surface plasmon resonance assay
T1 sequence (P02752 whole entry): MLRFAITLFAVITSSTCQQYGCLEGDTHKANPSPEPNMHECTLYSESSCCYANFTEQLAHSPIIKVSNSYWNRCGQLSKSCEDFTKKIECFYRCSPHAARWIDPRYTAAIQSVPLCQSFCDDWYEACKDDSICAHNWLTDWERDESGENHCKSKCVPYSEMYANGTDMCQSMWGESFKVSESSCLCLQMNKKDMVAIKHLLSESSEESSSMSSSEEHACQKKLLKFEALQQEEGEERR

[2] = target: T2, Riboflavin-binding protein (Gallus gallus) (UniProt P02752); test: Competitive inhibition of chicken riboflavin binding protein binding to immobilized ligand by surface plasmon resonance assay
T2 sequence (whole entry): T1 sequence (P02752 whole entry)

[3] = target: T2, Riboflavin-binding protein (Gallus gallus); test: Competitive inhibition of chicken riboflavin binding protein binding to immobilized ligand at 500 uM by surface plasmon resonance assay
[4] = target: T1, Riboflavin-binding protein; test: Binding affinity to chicken riboflavin binding protein assessed as dissociation constant at pH 7.4 in phosphate buffer by isothermal titration calorimetric assay
[5] = target: T1, Riboflavin-binding protein; test: Binding affinity to chicken riboflavin binding protein assessed as dissociation constant at pH 9 in 0.1 M Tris by isothermal titration calorimetric assay
[6] = target: T1, Riboflavin-binding protein; test: Binding affinity to chicken riboflavin binding protein assessed as dissociation constant at pH 4 in 0.1 M NaAc by isothermal titration calorimetric assay
[7] = target: T1, Riboflavin-binding protein; test: Binding affinity to chicken riboflavin binding protein assessed as dissociation constant at pH 7.4 in 0.1 M phosphate buffer by isothermal titration calorimetric assay
[8] = target: T1, Riboflavin-binding protein; test: Competitive inhibition of chicken riboflavin binding protein by surface plasmon resonance assay

| SMILES | Kd [1] [µM] | inhibition [2] | inhibition [3] [%] | Kd [4] [µM] | Kd [5] [µM] | Kd [6] [µM] | Kd [7] [µM] | Ki [8] [µM] |
| --- | --- | --- | --- | --- | --- | --- | --- | --- |
| Cc1cc2nc3c(=O)n(CC(=O)NCCCN)c(=O)nc-3n(C[C@H](O)[C@H](O)[C@H](O)CO)c2cc1C | 35.5 | Dose-dependent effect | 90 |  |  |  |  |  |
| Cc1cc2nc3c(=O)[nH]c(=O)nc-3n(C)c2cc1C [LUMIFLAVIN] |  |  |  | 0.061 |  |  |  |  |
| Cc1cc2nc3c(=O)[nH]c(=O)nc-3n(C[C@H](O)[C@H](O)[C@H](O)CO)c2cc1C [RIBOFLAVIN] |  |  |  | 0.005 | 0.034 | 0.046 | 0.0066 | 0.35 |
